Legend:
catecholamines = assay: Catecholamine levels in rat brain and heart after dosing (HPLC with electrochemical detection); type: in vivo, rats; details: for selectivity (brain catecholamines versus heart catecholamines and 5-HT): compared with the methyl ester
Procedure: The animals are kept on a constant 12 hour day-night cycle, and body weights are measured daily. The animals are sacrificed by decapitation 12 to 24 hours after receiving the last dose of the test compound. Control animals receive the vehicle alone. Rats in single dose tests were fasted for 24 hours before administration of the test compound whilst rats in multiple dose tests were allowed free access to food and water. Immediately after death, the brain and heart (where appropriate) are removed and separately homogenized either by 50 ml phosphate buffer pH 6.8 for AADC determination or in icecold 0.4 M HC104 containing 0.05% (w/v) EDTA and 0.1% (w/v) sodium bisulfite for catecholamine determination. AADC activity is determined by the ^14C02 trapping method of J. Christenson, Archs. Biochem. Biophys. […] Catecholamines are determined by centrifuging the homogenate, adding the supernatant to alumina buffered to pH 8.0-8.4 to absorb the catecholamines, re-extracting the catecholamines from the alumina with 2.1 M HC104 and determining the catecholamines in the extracts using reversed-phase ion-pair HPLC with electrochemical detection.

Serotonin (5-HT) = Serotonin (5-HT) levels in rat organs after dosing (standard techniques); type: in vivo, rats
Procedure: (§1) The animals are kept on a constant 12 hour day-night cycle, and body weights are measured daily. The animals are sacrificed by decapitation 12 to 24 hours after receiving the last dose of the test compound. Control animals receive the vehicle alone. Rats in single dose tests were fasted for 24 hours before administration of the test compound whilst rats in multiple dose tests were allowed free access to food and water.
In the brain, doses of 10 mg/kg and 200 mg/kg produced a 10% reduction and a 70-80% reduction of AADC activity, respectively. […] In the heart, no reduction of norepinephrine is noted up to a dose of 200 mg/kg. When tested after multiple administration of 10, 25, or 50 mg/kg given daily for six days in rats sacrificed 24 hours after the sixth dose, the compound produced a 50% decrease in brain norephinephrine at a dose of 10 mg/kg (daily). […] Serotonin (5-HT) levels, as assessed by standard techniques, are not altered in the brain even at the highest dose tested.

[1] = target: T1, aromatic amino acid decarboxylase (AADC) (Rattus norvegicus, UniProt P14173); assay: AADC activity in rat organ homogenates after dosing (14CO2 trapping method, DL-[1-14C]-dopa as substrate); type: in vivo, rats
T1 construct: the brain and heart (where appropriate) are removed and separately homogenized; from tissue; host or cells: rat brain and heart homogenates
T1 sequence (P14173 1-480): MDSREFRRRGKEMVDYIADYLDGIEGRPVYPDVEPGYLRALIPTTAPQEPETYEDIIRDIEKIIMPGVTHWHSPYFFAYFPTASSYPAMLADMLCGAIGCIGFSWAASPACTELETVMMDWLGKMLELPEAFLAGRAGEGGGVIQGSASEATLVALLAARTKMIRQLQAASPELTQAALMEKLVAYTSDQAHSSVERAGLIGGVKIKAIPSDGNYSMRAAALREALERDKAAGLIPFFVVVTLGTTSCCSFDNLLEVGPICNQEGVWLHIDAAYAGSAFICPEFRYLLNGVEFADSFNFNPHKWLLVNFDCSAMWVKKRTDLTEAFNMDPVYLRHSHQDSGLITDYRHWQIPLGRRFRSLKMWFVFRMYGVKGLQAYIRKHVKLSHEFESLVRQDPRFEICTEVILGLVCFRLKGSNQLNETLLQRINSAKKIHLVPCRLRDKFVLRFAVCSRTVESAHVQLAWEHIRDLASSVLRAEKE
Procedure: as §1
Immediately after death, the brain and heart (where appropriate) are removed and separately homogenized either by 50 ml phosphate buffer pH 6.8 for AADC determination or in icecold 0.4 M HC104 containing 0.05% (w/v) EDTA and 0.1% (w/v) sodium bisulfite for catecholamine determination. AADC activity is determined by the ^14C02 trapping method of J. Christenson, Archs. Biochem. Biophys. 141, 356 (1970) using DL-[1-14C] -dopa as the substrate. Catecholamines are determined by centrifuging the homogenate, adding the supernatant to alumina buffered to pH 8.0-8.4 to absorb the catecholamines, re-extracting the catecholamines from the alumina with 2.1 M HC104 and determining the catecholamines in the extracts using reversed-phase ion-pair HPLC with electrochemical detection.

[2] = Stability of the compound; type: physicochemical
Solubility in water = type: physicochemical; details: neutral pH
AADC = target: T2, AADC (Homo sapiens, UniProt P20711); assay: AADC inhibition, general statement (method not given)
T2 sequence (P20711 1-480): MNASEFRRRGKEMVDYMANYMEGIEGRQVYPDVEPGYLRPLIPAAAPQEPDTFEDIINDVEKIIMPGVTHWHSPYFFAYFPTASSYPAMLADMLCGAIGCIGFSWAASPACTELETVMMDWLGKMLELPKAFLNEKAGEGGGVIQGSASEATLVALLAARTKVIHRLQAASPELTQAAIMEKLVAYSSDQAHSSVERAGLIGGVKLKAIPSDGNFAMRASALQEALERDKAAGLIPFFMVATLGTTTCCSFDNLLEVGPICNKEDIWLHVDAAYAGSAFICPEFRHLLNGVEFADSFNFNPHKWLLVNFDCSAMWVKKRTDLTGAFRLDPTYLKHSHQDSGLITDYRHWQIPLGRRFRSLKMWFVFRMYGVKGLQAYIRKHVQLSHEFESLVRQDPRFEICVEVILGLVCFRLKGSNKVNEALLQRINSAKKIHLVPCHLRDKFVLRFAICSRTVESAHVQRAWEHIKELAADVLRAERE

[3] = heart, up to a dose of 200 mg/kg

## NC(CF)(Cc1ccc(O)c(O)c1)C(=O)O (centres unmarked) [Fluoromethyl dopa, reference compound]
catecholamines
  selectivity (brain catecholamines versus heart catecholamines and 5-HT): does not exhibit the selectivity

## COC(=O)[C@@H]1[C@H]2C[C@H]3c4[nH]c5ccccc5c4CCN3C[C@@H]2CC[C@@H]1O [Yohimbine, reference compound]
catecholamines; yohimbine alone
  metabolite MOPEG-sulfate: increase
  norepinephrine: decrease

## COC(=O)C(N)(CF)Cc1ccc(O)cc1 (centres unmarked) [methyl 2-amino-2-fluoromethyl-3-(4-hydroxyphenyl)propionate]
Serotonin (5-HT); brain and heart, summary statement
  endogenous 5-HT levels in the brain and heart: substantially unaltered
Serotonin (5-HT); brain, multiple administration, even at the highest dose tested
  Serotonin (5-HT) levels in the brain: not altered
catecholamines; animals treated for 2 weeks with 10 mg/kg methyl ester, same dose of yohimbine
  additional decrease of norepinephrine produced by yohimbine: no longer produces an additional decrease
catecholamines; brain, 10 mg/kg daily for six days, sacrificed 24 hours after the sixth dose
  decrease in brain norephinephrine: 50%
catecholamines; brain, 50 mg/kg daily for six days
  Brain dopamine decreased: 50%
catecholamines; brain, dose 10 mg/kg
  Brain norepinephrine decreased: 15-20%
catecholamines; brain, dose 50 mg/kg
  dopamine decreased: decreased significantly
catecholamines; brain, dose 200 mg/kg
  Brain norepinephrine decreased: 50%
  dopamine decreased: 75%
catecholamines; brain, higher doses (25 or 50 mg/kg daily for six days) compared with 10 mg/kg
  decrease in brain norephinephrine: do not give an additional response
catecholamines; brain, lower doses (10, 25 mg/kg daily for six days)
  Brain dopamine: no significant effect
catecholamines; brain, summary statement
  endogenous catecholamine levels in the brain: effective in lowering
catecholamines; combined with yohimbine, up to 8 days of methyl ester treatment
  decrease of norepinephrine over yohimbine: small additional decrease
catecholamines; heart, multiple administration (10, 25 or 50 mg/kg daily for six days), any dose
  Heart norepinephrine: not significantly changed
catecholamines; [3]
  reduction of norepinephrine in the heart: no reduction
[1]; animals pretreated with haloperidol, compared with non-haloperidol treated animals
  inhibition of AADC activity: more pronounced
[1]; brain, co-administration of -methyl tyrosine (inhibitor of tyrosine hydroxylase)
  extent of inhibition of AADC activity in the brain: reduces the extent of inhibition
[1]; [3]
  AADC activity in the heart: not reduced significantly
[1]; rat, brain, dose 10 mg/kg, read-out: reduction of AADC activity
  inhibition at 10 mg/kg: 10%

## CC(C)(C)OC(=O)C(N)(CF)Cc1ccc(O)cc1 (centres unmarked) [tert-butyl 2-fluoromethyl-2-amino-3-(4-hydroxyphenyl)-propionate]
[2]
  stability: relatively unstable

## NC(CF)(Cc1ccc(O)cc1)C(=O)O (stereo not drawn) [α-fluoromethyl tyrosine, 2-fluoromethyl-2-amino-3-(4-hydroxyphenyl)-propionic acid]
Solubility in water
  solubility in water: insoluble
catecholamines
  selectivity (brain catecholamines versus heart catecholamines and 5-HT): same degree of selectivity is not found
AADC
  AADC inhibition: weak AADC inhibitor

From patent EP0040150A1, “Fluoromethylated tyrosine methyl ester” (MERRELL TORAUDE ET COMPAGNIE, priority 1980, dated 1981)
